The numbers were not newly measured in patent US20040137049A1, “Amphotericin b aqueous composition” (priority 2001, published 2004), which cites them from elsewhere.

The conditions of this data set: in methanol.

≈ marks a conversion by molar mass, not a printed value.

As for `C[C@@H]1[C@H](O)[C@@H](C)/C=C/C=C/C=C/C=C/C=C/C=C/C=C/[C@H](O[C@@H]2O[C@H](C)[C@@H](O)[C@H](N)[C@@H]2O)C[C@@H]2O[C@](O)(C[C@@H](O)C[C@@H](O)[C@H](O)CC[C@@H](O)C[C@@H](O)CC(=O)O[C@H]1C)C[C@H](O)[C@H]2C(=O)O` [Amphotericin B], the Solubility was 100 µg/mL (≈ 108 µM).
